Where two headings read alike, the source gives them in different places.
Molecular target: CBP (Homo sapiens (Human), UniProt Q92793)
Assay: In vitro CBP inhibition (AlphaScreen, biotinylated H4-tetraacetyl peptide)
Format: binding
Experimental: The CBP-inhibitory activity of the compounds described herein was determined by calculating the IC50. More specifically, CBP inhibitor activity was assayed as follows: CBP was cloned and expressed in E. coli as His-tag protein and purified by Nickel affinity and gel-filtration chromatography. […] CBP binding and inhibition is assessed by monitoring the interaction of biotinylated H4-tetraacetyl peptide (AnaSpec, H4K5/8/12/16(Ac), biotin-labeled) with the target using the AlphaScreen technology (Perkin Elmer). In a 384-well ProxiPlate CBP (50 nM final) was combined with peptide (20 nM final) in 50 mM HEPES (pH 7.3), 10 mM NaCl, 0.25 mM TCEP, 0.1% (w/v) BSA, and 0.005% (w/v) Brij-35 either in the presence of DMSO (final 0.4% DMSO) or compound dilution series in DMSO. After 20 min incubation at room temp, Alpha-streptavidin donor beads and Nickel Chelate acceptor beads were added to a final concentration of 5 μg/mL.
The ability of the compounds disclosed herein to inhibit CBP activity was quantified and the respective IC50 value determined.

[1] = AlphaScreen, Table 29, read-out: CBP IC50

Chain of CBP (Q92793 1081-1197): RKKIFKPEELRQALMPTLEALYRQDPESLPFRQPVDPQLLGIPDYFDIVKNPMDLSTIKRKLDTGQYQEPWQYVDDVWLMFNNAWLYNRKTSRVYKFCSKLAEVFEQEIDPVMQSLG

| IC50 [1] [nM] | Structure (SMILES) | IC50 [nM] |
| --- | --- | --- |
| < 500 | Cn1cc(-c2cnn(Cc3ccccc3)c2)c(N2CCCC2)cc1=O [Example 87, 5-(1-benzyl-1H-pyrazol-4-yl)-1-methyl-4-pyrrolidin-1-yl-1H-pyridin-2-one] |  |
| < 500 | Cn1cc(-c2cnn(Cc3ccccc3)c2)c(OCC(F)(F)F)cc1=O [Example 91, 5-(1-benzyl-1H-pyrazol-4-yl)-1-methyl-4-(2,2,2-trifluoro-ethoxy)pyridin-2(1H)-one] |  |
| < 500 | Cn1cc(-c2cnn(Cc3ccccc3)c2)c(OCCC(F)(F)F)cc1=O [Example 92, 5-(1-benzyl-1H-pyrazol-4-yl)-1-methyl-4-(3,3,3-trifluoro-propoxy)pyridin-2(1H)-one] |  |
| < 500 | CCOc1cc(=O)n(C)cc1-c1cnn(-c2ccccc2)c1 [Example 96, 4-ethoxy-1-methyl-5-(1-phenyl-1H-pyrazol-4-yl) pyridin-2(1H)-one] |  |
| < 500 | CCOc1cc(=O)n(C)cc1-c1cnn(-c2ccccc2Cl)c1 [Example 97, 5-(1-(2-chloro-phenyl)-1H-pyrazol-4-yl)-4-ethoxy-1-methyl-pyridin-2(1H)-one] |  |
| < 500 | CCOc1cc(=O)n(C)cc1-c1cnn(-c2c(Cl)cccc2Cl)c1 [Example 98, 5-(1-(2,6-dichlorophenyl)-1H-pyrazol-4-yl)-4-ethoxy-1-methyl-pyridin-2(1H)-one] |  |
| < 500 | CCOc1cc(=O)n(C)cc1-c1cnn(Cc2ccc(C(C)C)cc2)c1 [Example 101, 4-ethoxy-5-[1-(4-isopropyl-benzyl)-1H-pyrazol-4-yl]-1-methyl-1H-pyridin-2-one] |  |
| < 500 | CCOc1cc(=O)n(C)cc1-c1cnn(Cc2ccc(-c3cnn(C)c3)cc2)c1 [Example 102, 4-ethoxy-1-methyl-5-{1-[4-(1-methyl-1H-pyrazol-4-yl)-benzyl]-1H-pyrazol-4-yl}-1H-pyridin-2-one] |  |
| < 500 | CCOc1cc(=O)n(C)cc1-c1cnn(Cc2ccc(-c3cn[nH]c3)cc2)c1 [Example 103, 4-ethoxy-1-methyl-5-{1-[4-(1H-pyrazol-4-yl)-benzyl]-1H-pyrazol-4-yl}-1H-pyridin-2-one] |  |
| < 500 | CCOc1cc(=O)n(C)cc1-c1cnn(Cc2cccc(Br)c2)c1 [Example 105, 5-(1-(3-bromo-benzyl)-1H-pyrazol-4-yl)-4-ethoxy-1-methyl-pyridin-2(1H)-one] |  |
| < 500 | Cn1cc(-c2cn(C)c(=O)cc2-c2ccccc2)cn1 [Example 107, 1-methyl-5-(1-methyl-1H-pyrazol-4-yl)-4-phenylpyridin-2(1H)-one] |  |
| < 500 | Cn1cc(-c2cc(=O)n(C)cc2-c2cnn(Cc3ccccc3)c2)cn1 [Example 108, 5-(1-benzyl-1H-pyrazol-4-yl)-1-methyl-4-(1-methyl-1H-pyrazol-4-yl)pyridin-2(1H)-one] |  |
| < 500 | Cn1cc(-c2cnn(Cc3ccccc3)c2)c(-c2ccsc2)cc1=O [Example 117, 5-(1-benzyl-1H-pyrazol-4-yl)-1-methyl-4-(thiophen-3-yl) pyridin-2(1H)-one] |  |
| < 500 | Cn1cc(-c2cnn(C3CCOCC3)c2)c(-c2ccccc2)cc1=O [Example 126, 1-methyl-4-phenyl-5-(1-(tetrahydro-2H-pyran-4-yl)-1H-pyrazol-4-yl) pyridin-2(1H)-one] |  |

Second part, the molecule before the results:

| Structure (SMILES) | IC50 [1] [nM] | IC50 [nM] |
| --- | --- | --- |
| CN(C)C(=O)c1ccn(-c2cc(=O)n(C)cc2-c2cnn(Cc3ccccc3)c2)c1 [Example 78, 1-(5-(1-benzyl-1H-pyrazol-4-yl)-1-methyl-2-oxo-1,2-dihydropyridin-4-yl)-N,N-dimethyl-1H-pyrrole-3carboxamide] | < 500 |  |
| Cn1cc(-c2cnn(Cc3ccccc3)c2)c(-n2ccc(C(=O)O)c2)cc1=O [Example 79, 1-(5-(1-benzyl-1H-pyrazol-4-yl)-1-methyl-2-oxo-1,2-dihydropyridin-4-yl)-1H-pyrrole-3-carboxylic acid] | < 500 |  |
| Cn1cc(-c2cnn(Cc3ccccc3)c2)c(-n2ccc(C#N)c2)cc1=O [Example 80, 1-(5-(1-benzyl-1H-pyrazol-4-yl)-1-methyl-2-oxo-1,2-dihydropyridin-4-yl)-1H-pyrrole-3-carbonitrile] | < 500 |  |
| CCNC(=O)c1ccn(-c2cc(=O)n(C)cc2-c2cnn(Cc3ccccc3)c2)c1 [Example 81, 1-(5-(1-benzyl-1H-pyrazol-4-yl)-1-methyl-2-oxo-1,2-dihydro-pyridin-4-yl)-N-ethyl-1H-pyrrole-3-carboxamide] | < 500 |  |
| CC(C)NC(=O)c1ccn(-c2cc(=O)n(C)cc2-c2cnn(Cc3ccccc3)c2)c1 [Example 82, 1-(5-(1-benzyl-1H-pyrazol-4-yl)-1-methyl-2-oxo-1,2-dihydropyridin-4-yl)-N-isopropyl-1H-pyrrole-3-carboxamide] | < 500 |  |
| Cn1cc(-c2cn(C)c(=O)cc2-n2cccc2)cn1 [Example 83, 1-methyl-5-(1-methyl-1H-pyrazol-4-yl)-4-(1H-prrol-1-yl) pyridin-2(1H)-one] | < 500 |  |
| Cn1cc(-c2cn(C)c(=O)cc2-n2ccc(C(=O)O)c2)cn1 [Example 84, 1-(1-methyl-5-(1-methyl-1H-pyrazol-4-yl)-2-oxo-1,2-dihydro-pyridin-4-yl)-1H-pyrrole-3-carboxylic acid] | < 500 |  |
| Cn1cc(-c2cnn(Cc3ccccc3)c2)c(-n2ccc(C(N)=O)c2)cc1=O [Example 85, 1-(5-(1-benzyl-1H-pyrazol-4-yl)-1-methyl-2-oxo-1,2-dihydropyridin-4-yl)-1H-pyrrole-3-carboxamide] | < 500 |  |
| Cn1cc(-c2cnn(CC3CC3)c2)c(-n2ccc(C(=O)O)c2)cc1=O [Example 86, 1-(5-(1-(cyclopropylmethyl)-1H-pyrazol-4-yl)-1-methyl-2-oxo-1,2-dihydropyridin-4-yl)-1H-pyrrolc-3-carboxylic acid] | < 500 |  |
| CNC(=O)[C@H]1CCN(c2cc(=O)n(C)cc2-c2cnn(Cc3ccccc3)c2)C1 [Example 93, 1-[5-(1-benzyl-1H-pyrazol-4-yl)-1-methyl-2-oxo-1,2-dihydro-pyridin-4-yl]-pyrrolidine-3-methylacetamide] | < 500 |  |
| CCOc1cc(=O)n(C)cc1-c1cnn2c1CCC2 [Example 95, 5-(5,6-dihydro-4H-pyrrolo[1,2-b]-pyrazol-3-yl)-4-ethoxy-1-methylpyridin-2(1H)-one] | < 500 |  |
| CNNc1cc(=O)n(C)cc1-c1cnn(Cc2ccccc2)c1 [Example 99, 5-(1-benzyl-1H-pyrazol-4-yl)-1-methyl-4-(2-methyl-hydrazinyl)-pyridin-2(1H)-one] | 500 to 5000 |  |
| CCOc1cc(=O)n(C)cc1-c1cnn(C(C)c2ccc(-c3cnn(C)c3)cc2)c1 (stereo not shown) [Example 100, 4-ethoxy-1-methyl-5-(1-{1-[4-(1-methyl-1H-pyrazol-4-yl)-phenyl]-ethyl}-1H-pyrazol-4-yl)-1H-pyridin-2-one] | < 500 |  |
| Cc1ccccc1-c1cc(=O)n(C)cc1-c1cnn(Cc2ccccc2)c1 [Example 106, 5-(1-benzyl-1H-pyrazol-4-yl)-1-methyl-4-o-tolyl-1H-pyridin-2-one] |  | 500 to 5000 |
| Cn1ccc(-c2cc(=O)n(C)cc2-c2cnn(Cc3ccccc3)c2)n1 [Example 109, 5-(1-benzyl-1H-pyrazol-4-yl)-1-methyl-4-(1-methyl-1H-pyrazol-3-yl)pyridin-2(1H)-one] | 500 to 5000 |  |
| Cn1nccc1-c1cc(=O)n(C)cc1-c1cnn(Cc2ccccc2)c1 [Example 110, 5-(1-benzyl-1H-pyrazol-4-yl)-1-methyl-4-(1-methyl-1H-pyrazol-5-yl)pyridin-2(1H)-one] | 500 to 5000 |  |
| Cc1cccc(-c2cc(=O)n(C)cc2-c2cnn(Cc3ccccc3)c2)c1 [Example 111, 5-(1-benzyl-1H-pyrazol-4-yl)-1-methyl-4-(m-tolyl)-pyridin-2(1H)-one] | < 500 |  |
| Cc1ccc(-c2cc(=O)n(C)cc2-c2cnn(Cc3ccccc3)c2)cc1 [Example 112, 5-(1-benzyl-1H-pyrazol-4-yl)-1-methyl-4-(p-tolyl)pyridin-2(1H)-one] | < 500 |  |
| COc1cccc(-c2cc(=O)n(C)cc2-c2cnn(Cc3ccccc3)c2)c1 [Example 113, 5-(1-benzyl-1H-pyrazol-4-yl)-4-(3-methoxyphenyl)-1-methyl-pyridin-2(1H)-one] | < 500 |  |
| Cn1cc(-c2cnn(Cc3ccccc3)c2)c(-c2ccn[nH]2)cc1=O [Example 114, 5-(1-benzyl-1H-pyrazol-4-yl)-1-methyl-4-(1H-pyrazol-5-yl) pyridin-2(1H)-one] | < 500 |  |
| Cn1cc(-c2cnn(Cc3ccccc3)c2)c(-c2cccs2)cc1=O [Example 116, 5-(1-benzyl-1H-pyrazol-4-yl)-1-methyl-4-(thiophen-2-yl) pyridin-2(1H)-one] | < 500 |  |
| COc1ccc(-c2cc(=O)n(C)cc2-c2cnn(Cc3ccccc3)c2)cc1 [Example 120, 5-(1-benzyl-1H-pyrazol-4-yl)-4-(4-methoxyphenyl)-1-methyl-pyridin-2(1H)-one] | < 500 |  |
| Cn1cc(-c2cnn(Cc3ccccc3)c2)c(-c2cccnc2)cc1=O [Example 122, 5′-(1-benzyl-1H-pyrazol-4-yl)-1′-methyl-[3,4-bipyridin]-2′(1′H)-one] | < 500 |  |
| Cn1cc(-c2cnn(Cc3ccccc3)c2)c(-c2ccccc2Cl)cc1=O [Example 123, 5-(1-benzyl-1H-pyrazol-4-yl)-4-(2-chlorophenyl)-1-methyl-pyridin-2(1H)-one] |  | 500 to 5000 |
| Cn1cc(-c2cnn(Cc3ccccc3)c2)c(-c2ccncc2)cc1=O [Example 124, 5-(1-benzyl-1H-pyrazol-4-yl)-1-methyl-[4,4′-bipyridin]-2(1H)-one] | < 500 |  |
| Cn1cc(-c2cnn(C3CCCCC3)c2)c(-c2ccccc2)cc1=O [Example 125, 5-(1-cyclohexyl-1H-pyrazol-4-yl)-1-methyl-4-phenylpyridin-2(1H)-one] | < 500 |  |
